Assay results as given in patent publication US12662491B2 (Redona Therapeutics, Inc., priority 2020, dated 2026).
pIC50: −log10 of the molar value. Read-outs that look alike come from different tables or passages of the source.

Biological target: T1, Zcchc11 enzyme (Homo sapiens, UniProt Q5TAX3)
T1 construct: made in house; host or cells: HEK293 cells (Zcchc11); E. coli Rosetta II (LIN28A)
T1 sequence (Q5TAX3 212-1420): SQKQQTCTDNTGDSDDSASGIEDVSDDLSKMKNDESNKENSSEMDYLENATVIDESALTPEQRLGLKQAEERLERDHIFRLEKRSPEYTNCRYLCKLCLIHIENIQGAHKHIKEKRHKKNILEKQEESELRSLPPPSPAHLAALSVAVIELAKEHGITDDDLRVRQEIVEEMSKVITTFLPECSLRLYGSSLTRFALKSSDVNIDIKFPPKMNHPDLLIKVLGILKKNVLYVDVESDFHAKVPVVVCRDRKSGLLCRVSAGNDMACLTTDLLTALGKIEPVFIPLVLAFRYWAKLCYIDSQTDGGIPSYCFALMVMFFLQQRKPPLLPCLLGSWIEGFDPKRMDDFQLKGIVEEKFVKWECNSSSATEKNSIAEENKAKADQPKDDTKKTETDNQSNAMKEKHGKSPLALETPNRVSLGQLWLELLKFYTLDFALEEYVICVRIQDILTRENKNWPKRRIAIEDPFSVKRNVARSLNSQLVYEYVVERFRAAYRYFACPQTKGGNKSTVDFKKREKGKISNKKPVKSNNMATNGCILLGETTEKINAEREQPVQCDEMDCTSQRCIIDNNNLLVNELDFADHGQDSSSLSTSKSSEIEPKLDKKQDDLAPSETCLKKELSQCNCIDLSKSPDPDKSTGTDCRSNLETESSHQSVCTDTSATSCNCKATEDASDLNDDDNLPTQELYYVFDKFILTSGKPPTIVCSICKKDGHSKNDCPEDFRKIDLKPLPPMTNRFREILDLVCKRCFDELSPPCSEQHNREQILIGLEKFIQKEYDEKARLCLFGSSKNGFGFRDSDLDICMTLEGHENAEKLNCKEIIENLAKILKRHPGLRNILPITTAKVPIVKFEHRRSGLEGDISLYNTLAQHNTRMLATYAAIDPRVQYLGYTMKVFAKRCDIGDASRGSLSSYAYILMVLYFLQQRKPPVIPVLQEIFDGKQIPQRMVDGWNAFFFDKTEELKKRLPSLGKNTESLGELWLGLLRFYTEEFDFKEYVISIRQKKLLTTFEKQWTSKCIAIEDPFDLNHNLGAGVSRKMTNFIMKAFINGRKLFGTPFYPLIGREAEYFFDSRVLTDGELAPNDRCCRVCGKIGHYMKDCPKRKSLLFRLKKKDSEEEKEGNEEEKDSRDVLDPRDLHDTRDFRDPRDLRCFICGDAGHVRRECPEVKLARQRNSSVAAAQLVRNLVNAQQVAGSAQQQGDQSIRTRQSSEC
Assay: TUTase assay (Zcchc11 assay, Lin28a-dependent polyuridylation of pre-let-7)
Format: biochemical
Conditions: read-out: Potency Lin28a-dep Z11 IC50
Method in brief: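 Polyuridylation measured as fluorescein loss when a rhodamine-labelled A20 probe anneals to U-tails added to fluorescein pre-let-7 (2 nM). Reaction: truncated Zcchc11 0.2 nM, E. coli-made LIN28A 10 nM, UTP 5 uM, HEPES pH 7.3, room temperature. Initial rates fitted to four-parameter IC50.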

[1] = Lin28a-dependent Zcchc11 (Z11) TUTase assay
[2] = Lin28a-dependent Zcchc11 (Z11) TUTase activity

| pIC50 [1] | pIC50 [2] | Structure (SMILES) | other results |
| --- | --- | --- | --- |
| 5.00 to 6.00 | – | CN(C)C1CN(c2ccc(-n3cc(C(=O)O)c(=O)c4cc(Cl)c(N5CCC[C@@H]5CCc5ccccn5)cc43)cn2)C1 [Example 578, (R)-6-chloro-1-(6-(3-(dimethylamino)azetidin-1-yl)pyridin-3-yl)-4-oxo-7-(2-(2-(pyridin-2-yl)ethyl)pyrrolidin-1-yl)-1,4-dihydroquinoline-3-carboxylic acid] | – |
| – | 5.00 to 6.00 | Cc1cccc(F)c1-n1cc(C(=O)O)c(=O)c2cc(F)c(N3CCC[C@@H]3COc3ccccn3)cc21 [Compound 154, (R)-6-fluoro-1-(2-fluoro-6-methylphenyl)-4-oxo-7-(2-((pyridin-2-yloxy)methyl)pyrrolidin-1-yl)-1,4-dihydro-quinoline-3-carboxylic acid] | – |
| – | 5.00 to 6.00 | Cc1ccc(-n2cc(C(=O)O)c(=O)c3cc(F)c(N4CCC[C@@H]4COc4ccccn4)cc32)c(C)c1 [Compound 156, (R)-1-(2,4-dimethyl-phenyl)-6-fluoro-4-oxo-7-(2-((pyridin-2-yloxy)methyl)pyrrolidin-1-yl)-1,4-dihydro-quinoline-3-carboxylic acid] | – |
| – | ≥ 6.00 | Cc1cccnc1OC[C@H]1CCCN1c1cc2c(cc1Cl)c(=O)c(C(=O)O)cn2-c1ccccc1 [Compound 103, (R)-6-chloro-7-(2-(((3-methyl-pyridin-2-yl)oxy)methyl)pyrrolidin-1-yl)-4-oxo-1-phenyl-1,4-dihydro-quinoline-3-carboxylic acid] | – |
| – | ≥ 6.00 | CS(=O)(=O)Nc1ccc(-n2cc(C(=O)O)c(=O)c3cc(F)c(N4CCC[C@@H]4COc4ccccn4)cc32)cc1 [Compound 148, (R)-6-fluoro-1-(4-(methyl-sulfonamido)phenyl)-4-oxo-7-(2-((pyridin-2-yloxy)methyl)pyrrolidin-1-yl)-1,4-dihydro-quinoline-3-carboxylic acid] | – |
| – | ≥ 6.00 | O=C(O)c1cn(-c2ccc(F)c(O)c2)c2cc(N3CCC[C@@H]3COc3ncccc3Cl)c(Cl)cc2c1=O [Compound 130, (R)-6-chloro-7-(2-(((3-chloropyridin-2-yl)oxy)methyl)pyrrolidin-1-yl)-1-(4-fluoro-3-hydroxy-phenyl)-4-oxo-1,4-dihydro-quinoline-3-carboxylic acid] | – |
| ≥ 6.00 | – | O=C(O)c1cn(-c2ccc(O)c(F)c2)c2cc(N3CCC[C@@H]3COc3ccccn3)c(F)cc2c1=O [Example 385, (R)-6-fluoro-1-(3-fluoro-4-hydroxyphenyl)-4-oxo-7-(2-((pyridin-2-yloxy)methyl)pyrrolidin-1-yl)-1,4-dihydroquinoline-3-carboxylic acid] | – |

The remaining lines, values behind:

| Structure (SMILES) | pIC50 [1] | pIC50 [2] | other results |
| --- | --- | --- | --- |
| O=C(O)c1cn(-c2cnn(CCN3CCC3)c2)c2cc(N3CCC[C@@H]3COc3ncccc3Cl)c(Cl)cc2c1=O [Example 479, (R)-1-(1-(2-(azetidin-1-yl)ethyl)-1H-pyrazol-4-yl)-6-chloro-7-(2-(((3-chloropyridin-2-yl)oxy)methyl)pyrrolidin-1-yl)-4-oxo-1,4-dihydroquinoline-3-carboxylic acid] | ≥ 6.00 | – | – |
| CN(C)C1CN(c2ccc(-n3cc(C(=O)O)c(=O)c4cc(Cl)c(N5CCC[C@@H]5COc5nc6ccn(C)c6cc5Cl)cc43)cn2)C1 [Compound 256, 6-chloro-7-[(2R)-2-[([6-chloro-1-methyl-pyrrolo [3,2-b]pyridin-5-yl]oxy)methyl]pyrrolidin-1-yl]-1-[6-[3-(dimethyl-amino)azetidin-1-yl]pyridin-3-yl]-4-oxoquinoline-3-carboxylic acid] | – | ≥ 6.00 | – |
| CN(C)C1CN(c2ccc(-n3cc(C(=O)O)c(=O)c4ccc(N5C(=O)CC[C@@H]5COc5ncccc5Cl)cc43)cn2)C1 [Compound 249, (R)-7-(2-(((3-chloropyridin-2-yl)oxy)methyl)-5-oxopyrrolidin-1-yl)-1-(6-(3-(dimethyl-amino)azetidin-1-yl)pyridin-3-yl)-4-oxo-1,4-dihydro-quinoline-3-carboxylic acid] | – | 5.00 to 6.00 | – |
| COCCN(C)C1CN(c2ccc(-n3cc(C(=O)O)c(=O)c4cc(F)c(N5CC[C@H](C)[C@@H]5COc5ncccc5Cl)cc43)cn2)C1 (racemic) [Compound 262, rac-7-((2R,3S)-2-(((3-chloropyridin-2-yl)oxy)methyl)-3-methyl-pyrrolidin-1-yl)-6-fluoro-1-(6-(3-((2-methoxy-ethyl)(methyl)amino)azetidin-1-yl)pyridin-3-yl)-4-oxo-1,4-dihydro-quinoline-3-carboxylic acid] | – | ≥ 6.00 | – |
| CN(C)C1CN(c2ccc(-n3cc(C(=O)O)c(=O)c4cc(Cl)c(N5CC(c6ccccn6)C[C@@H]5COc5ncccc5Cl)cc43)cn2)C1 (mixture of isomers) [Compound 315, rac-6-chloro-7-((2R)-2-(((3-chloropyridin-2-yl)oxy)methyl)-4-(pyridin-2-yl)pyrrolidin-1-yl)-1-(6-(3-(dimethyl-amino)azetidin-1-yl)pyridin-3-yl)-4-oxo-1,4-dihydro-quinoline-3-carboxylic acid] | – | ≥ 6.00 | – |
| NC1CN(c2ccc(-n3cc(C(=O)O)c(=O)c4cc(Cl)c(N5CCC[C@@H]5COc5ncccc5Cl)cc43)cn2)C1 [Example 28, (R)-1-(6-(3-aminoazetidin-1-yl)pyridin-3-yl)-6-chloro-7-(2-(((3-chloropyridin-2-yl)oxy)methyl)pyrrolidin-1-yl)-4-oxo-1,4-dihydroquinoline-3-carboxylic acid] | – | – | pIC50 (LIN28A 10 nM, Zcchc11 0.2 nM, 5′-fluorescein pre-let-7 miRNA 2 nM, UTP 5 uM, room temperature, 30 minutes pre-incubation): ≥ 6.00 |
| CN(C)C1CN(c2ccc(-n3cc(C(=O)O)c(=O)c4cc(Cl)c(N5CC(c6ccccc6)C[C@@H]5COc5ncccc5Cl)cc43)cn2)C1 (stereo partly drawn) [Example 593, 6-chloro-7-((2R)-2-(((3-chloropyridin-2-yl)oxy)methyl)-4-phenyl-pyrrolidin-1-yl)-1-(6-(3-(dimethylamino)azetidin-1-yl)pyridin-3-yl)-4-oxo-1,4-dihydroquinoline-3-carboxylic acid] | ≥ 6.00 | – | – |
| CN(C)C1CN(c2ccc(-n3cc(C(=O)O)c(=O)c4cc(F)c(N5CC(c6cccnc6)C[C@@H]5COc5ncccc5Cl)cc43)cn2)C1 (single isomer, unassigned) [Compound 328] | – | ≥ 6.00 | – |
| CN(C)C1CN(c2ccc(-n3cc(C(=O)O)c(=O)c4cc(Cl)c(N5CCC(C)(C)[C@@H]5COc5ncccc5Cl)cc43)cn2)C1 [Compound 351, (R)-6-chloro-7-(2-(((3-chloropyridin-2-yl)oxy)methyl)-3,3-dimethyl-pyrrolidin-1-yl)-1-(6-(3-(dimethyl-amino)azetidin-1-yl)pyridin-3-yl)-4-oxo-1,4-dihydro-quinoline-3-carboxylic acid] | – | ≥ 6.00 | – |
| COc1ccc(Cl)c(OC[C@H]2CC3(CC3)CN2c2cc3c(cc2Cl)c(=O)c(C(=O)O)cn3-c2ccc(N3CC(N(C)C)C3)nc2)n1 [Example 663, (R)-6-chloro-7-(6-(((3-chloro-6-methoxypyridin-2-yl)oxy)methyl)-5-azaspiro[2.4]heptan-5-yl)-1-(6-(3-(dimethylamino)azetidin-1-yl)pyridin-3-yl)-4-oxo-1,4-dihydroquinoline-3-carboxylic acid] | ≥ 6.00 | – | – |
| COc1ccnc(OC[C@H]2C[C@H]3C[C@H]3N2c2cc3c(cc2Cl)c(=O)c(C(=O)O)cn3-c2ccc(N3CC(N(C)C)C3)nc2)c1F [Example 685, 6-chloro-1-(6-(3-(dimethylamino)azetidin-1-yl)pyridin-3-yl)-7-((1R,3R,5R)-3-(((3-fluoro-4-methoxypyridin-2-yl)oxy)methyl)-2-azabicyclo[3.1.0]hexan-2-yl)-4-oxo-1,4-dihydroquinoline-3-carboxylic acid] | ≥ 6.00 | – | – |
| COc1cnc(OC[C@H]2CC3CC3N2c2cc3c(cc2Cl)c(=O)c(C(=O)O)cn3-c2ccnc(N)c2)c(Cl)c1 (stereo partly drawn) [Example 653, 1-(2-aminopyridin-4-yl)-6-chloro-7-((3R)-3-(((3-chloro-5-methoxypyridin-2-yl)oxy)methyl)-2-azabicyclo[3.1.0]hexan-2-yl)-4-oxo-1,4-dihydroquinoline-3-carboxylic acid] | ≥ 6.00 | – | – |
